Data set [1] concerns T1, chABCD3.
T1 construct: gene ABCD3; C. elegans PMP2 residues 1-50 fused to human ABCD3 residues 51-659, N-terminal FLAG tag, HEK293F, homodimer; PMP2 segment invisible in structures; with Peroxisomal Membrane Protein related (Caenorhabditis elegans)
In words: ATPase activity, malachite green phosphate assay; cryo-EM structure […] Å (GDN). It counts as biochemical, Homo sapiens. As to conditions: LMNG + CHS detergent; 20 mM Tris-HCl pH 7.5, 2 mM MgCl2, 37 °C; no acyl-CoA (basal); structure with 10 mM ATP/Mg2+.

In data set [2] the test system is T1, chABCD3. The experiment in a line: ATPase activity, malachite green phosphate assay. It counts as biochemical, Homo sapiens. As to conditions: LMNG + CHS detergent; 20 mM Tris-HCl pH 7.5, 2 mM MgCl2, 37 °C; no acyl-CoA (basal).
Data set [3] concerns the target T1, chABCD3. The experiment in a line: stimulation of ATPase activity, malachite green phosphate assay; cryo-EM structure […] Å (digitonin). The conditions noted are these: 2 mM ATP; LMNG + CHS; 20 mM Tris-HCl pH 7.5, 2 mM MgCl2, 37 °C; activation of ATPase; two sites per dimer. It counts as biochemical, Homo sapiens.
Data set [4] addresses chimeric ABCD3 (chABCD3): N-terminal 50 residues of C. elegans PMP2 fused to the core domains of human ABCD3, wild type (Caenorhabditis elegans | human) (UniProt P28288). The experiment in a line: cryo-EM structure; purified chABCD3 (~10 mg/mL) in digitonin with 0.5 mM phytanoyl-CoA; C2 symmetry; inward-facing conformation; 2.9 Å.
Substrate in data set [5]: Nc1ncnc2c1ncn2[C@@H]1O[C@H](COP(=O)(O)OP(=O)(O)OP(=O)(O)O)[C@@H](O)[C@H]1O
The experiment in a line: ATPase activity, malachite green phosphate assay. It counts as biochemical, Homo sapiens. As to conditions: LMNG + CHS detergent, 20 mM Tris-HCl pH 7.5, 2 mM MgCl2, 37 °C, no acyl-CoA (basal).

With `Nc1ncnc2c1ncn2[C@@H]1O[C@H](COP(=O)(O)OP(=O)(O)OP(=O)(O)O)[C@@H](O)[C@H]1O` [ATP], the Km with chABCD3 [1] was determined as 190 µM; in the data set with chABCD3 [2], 160 µM.

Take `CC(C)CCCC(C)CCCC(C)CCCC(C)CC(=O)SCCNC(=O)CCNC(=O)[C@H](O)C(C)(C)COP(=O)(O)OP(=O)(O)OC[C@H]1O[C@@H](n2cnc3c(N)ncnc32)[C@H](O)[C@@H]1OP(=O)(O)O` (some centres unmarked) [phytanoyl-CoA]: the EC50 at chABCD3 [3] was about 460 nM.

The molecule “chimeric ABCD3 (chABCD3): N-terminal 50 residues of C. elegans PMP2 fused to the core domains of human ABCD3, wild type (from UniProt P28288 51-659)” returned a stoichiometry N in data set [4] of 2.

B1: hABCD3 (Homo sapiens) (protein)
chain: MAAFSKYLTARNSSLAGAAFLLLCLLHKRRRALGLHGKKSGKPPLQNNEKEGKKERAVVDKVFFSRLIQILKIMVPRTFCKETGYLVLIAVMLVSRTYCDVWMIQNGTLIESGIIGRSRKDFKRYLLNFIAAMPLISLVNNFLKYGLNELKLCFRVRLTKYLYEEYLQAFTYYKMGNLDNRIANPDQLLTQDVEKFCNSVVDLYSNLSKPFLDIVLYIFKLTSAIGAQGPASMMAYLVVSGLFLTRLRRPIGKMTITEQKYEGEYRYVNSRLITNSEEIAFYNGNKREKQTVHSVFRKLVEHLHNFILFRFSMGFIDSIIAKYLATVVGYLVVSRPFLDLSHPRHLKSTHSELLEDYYQSGRMLLRMSQALGRIVLAGREMTRLAGFTARITELMQVLKDLNHGKYERTMVSQQEKGIEGVQVIPLIPGAGEIIIADNIIKFDHVPLATPNGDVLIRDLNFEVRSGANVLICGPNGCGKSSLFRVLGELWPLFGGRLTKPERGKLFYVPQRPYMTLGTLRDQVIYPDGREDQKRKGISDLVLKEYLDNVQLGHILEREGGWDSVQDWMDVLSGGEKQRMAMARLFYHKPQFAILDECTSAVSVDVEGYIYSHCRKVGITLFTVSHRKSLWKHHEYYLHMDGRGNYEFKQITEDTVEFGS
notes: full-length (659 residues), codon-optimized, N-terminal FLAG tag, expressed in HEK293F; LMNG + CHS detergent
On to B1, for which the Km in data set [5] stood at 240 µM.

What is called Km is the substrate concentration at which the rate is half of its maximum. Usually EC50 stands for the midpoint of the concentration-response curve. The term stoichiometry N denotes the number of molecules, sites or subunits per partner or assembly.
